From patent US8349867B2, “Quinoline compounds, intermediates, preparation methods and uses thereof” (Shanghai Institute of Pharmaceutical Industry, priority 2006, dated 2013)

Question: With `CC(C)c1ccc(Sc2c(/C=C/[C@@H]3C[C@@H](O)CC(=O)O3)cnc3ccccc23)cc1` [Compound A4] as the compound, how does the melting point read?
Answer: 147 to 148 °C

Question: Which melting point does the source give for `CC(C)c1ccc(Sc2cc3ncc(/C=C/[C@@H]4C[C@@H](O)CC(=O)O4)c(Sc4ccc(C(C)C)cc4)c3cc2Sc2ccc(C(C)C)cc2)cc1` [Compound A32] here?
Answer: 182 to 184 °C

Question: For `COc1cccc(Sc2cc3ncc(/C=C/[C@@H]4C[C@@H](O)CC(=O)O4)c(Sc4cccc(OC)c4)c3cc2Sc2cccc(OC)c2)c1` [Compound A31], which melting point is on record?
Answer: 57 to 59 °C

Question: Which melting point does the source give for `CC(C)c1ccc(Sc2c(/C=C/[C@@H]3C[C@@H](O)CC(=O)O3)cnc3cc(Cl)c(F)cc23)cc1` [Compound A12] here?
Answer: 175 to 177 °C

Question: With `O=C1C[C@H](O)C[C@@H](/C=C/c2cnc3ccccc3c2Sc2ccc(F)cc2)O1` [Compound A2] as the compound, how does the melting point read?
Answer: 130 to 132 °C
